Source: patent publication US20040229772A1, “Peptides responsive to antibodies against consensus peptide of the CS4-CFA/I family proteins” (priority 1996, published 2004)

Tests used:
Format in all cases: binding
Antibody to CS1 = experiment: ELISA of 8-mer peptides (pins) with rabbit serum; details: a listed pin number means recognized
Method: (§1) Blocks of pins for cleavable syntheses were obtained from Chiron Mimotopes U.S. Peptide synthesis was carried out according to the manufacturer's instructions using Opfp-derivatized amino acids. Peptides of length 8 with 7 overlap were manufactured in order to locate all linear epitopes in the sequence with a highest redundancy. […] Peptides were cleaved from the pins using 0.1 M phosphate buffer, pH 8.0, containing 40% acetonitrile. Two peptides were made and sacrificed for amino acid analysis as proof of peptide purity. A dinitrophenol (DNP) pin was included so that the efficiency of the cleavage could be monitored spectrophotometrically.
(§2) For blocking, a composition containing 5% nonfat dry milk in PBS+0.2% sodium azide was used. Stock streptavidin (Calbiochem Corp., La Jolla, Calif.) at 1 mg/ml in water was kept frozen in aliquots for up to several months. On the day of use, the stock streptavidin was diluted in phosphate buffered saline (PBS) to provide a concentration of 5 μg/ml streptavidin. Goat F(ab′)2 anti-mouse, anti-rabbit and anti-human sera were labeled with alkaline phosphatase (Biosource, International, Camarillo, Calif.).
(§3) Streptavidin was plated at 5 μg/ml, 50 μl per well, and incubated over night at 4° C. Plates were then washed by hand (Nunc Immunowash 12 hand plate washer. Fisher Scientific, Pittsburgh, Pa.) three times with PBS/0.1% TWEEN 20™. Peptides were then diluted to 10 μg/ml in PBS and plated at 50-μl/well. After incubation for one hour at room temperature followed by washing, the peptides were incubated with sera diluted in blocker at appropriate concentrations (5% nonfat dry milk) for 2 hours at room temperature. After washing the wells, 50 μl of phosphatase-labeled anti-serum IgG diluted 1:1000 in blocker was added to each well and was allowed to incubate at room temperature for 1 hour. The plates were washed. The 100 μl of PNDP (p-nitrophenylphosphate) substrate, prepared according to the manufacturer's instructions, was added to each well. Results were read at 5, 15 and 60 minutes using a microtiter plate reader (UVmax™, Moelcular Devices, Sunnyvale, Calif.).
(§4) Partially to fully purified colonization factor (40% to 100% pure) was run on SDS-PAGE gel (5-15 μg/lane of 10 comb gel (precast 10 comb, 1 mm thickness, Tris-tricene gel from Novex, San Diego, Calif.), for primary immunization run 9 lanes for each rabbit (45-135 μg CF protein with ½ the amount used in the primary immunization used as a booster). The gel was stained with 0.5% COOMASSIE BLUE™ (BioRad, Richmond, Calif.) in water for 1 hour, then destained with multiple changes of water for 60-90 minutes. The colonization factor bands were excised with a scalpel and the excess gel trimmed. The bands were stored at −20° C. until use.
(§5) After removal from freezer, the gel slices were transferred to a glass tissue homogenizer using a teflon pestle with grooves at the tip. The slices were ground with 0.3 ml phosphate buffered saline (PBS). The drill was run to homogenize the gel for 30 to 45 seconds. (In the instant case, a pestle with a shaft of steel was used which allowed placement of the pestle into the chuck of the hand-held drill.)
(§6) The homogenate was transferred to 16 mm×150 mm test tubes with disposable plastic transfer pipet. The pestle and homogenizer vessel was rinsed repeatedly with PBS and the contents transferred to the 16×150 test tube until a volume of 1.2 ml was obtained.
(§7) The sample obtained above was placed in a vortex mixer and vortexed on high. Freund's adjuvant 1.2 ml was added. (Complete Freund's was used for the primary immunization, while incomplete Freund's was used for the boost.) The composition was vortexed until a thick emulsion of almost a butter consistency was obtained (12-20 minutes).
(§8) A preimmune serum was obtained on all animals, which were then immunized with the 1 ml of the emulsion subcutaneously at 4-6 spots on the shoulders and rump. The animals were boosted three weeks later, then bleed 10 days after the booster shots. […]

[1] = test system: antibodies raised to the consensus peptide; experiment: ELISA of 8-mer peptides with rabbit antibodies; details: for reactivity of 8-mer peptides with antibodies from the rabbits: rabbit antibodies raised to consensus peptide SEQ ID NO:1, biotin-SGSG-peptide on streptavidin; for interaction of peptides with the antibodies raised to the consensus peptide: rabbit antibodies raised to consensus peptide SEQ ID NO:1
Method: as §1, §2, §3
Antibodies from the rabbits were then tested against the specific 8-mer peptides obtained from SEQ ID NO:1 in the manner disclosed above to determine the binding sites of the antibodies in the sera with the consensus peptide.

Antibody to CS4 = experiment: ELISA of 8-mer peptides (pins) with rabbit serum; details: a listed pin number means recognized
Method: as §1, §2, §3, §4, §5, §6, §7, §8

Antibody to CS2 = experiment: ELISA of 8-mer peptides (pins) with rabbit serum; details: a listed pin number means recognized
Method: as §1, §2, §3, §4, §5, §6, §7, §8

Antibody to 0166 lower = experiment: ELISA of 8-mer peptides (pins) with rabbit serum
Method: as §1, §2, §3, §4, §5, §6, §7, §8

Antibody to 0166 upper = experiment: ELISA of 8-mer peptides (pins) with rabbit serum
Method: as §1, §2, §3, §4, §5, §6, §7, §8

Antibody to CS17 = experiment: ELISA of 8-mer peptides (pins) with rabbit serum; details: a listed pin number means recognized
Method: as §1, §2, §3, §4, §5, §6, §7, §8

Antibody to CFA/I = experiment: ELISA of 8-mer peptides (pins) with rabbit serum
Method: as §1, §2, §3, §4, §5, §6, §7, §8

[2] = rabbit 1082, a listed pin number means recognized
[3] = rabbit 1081, a listed pin number means recognized
[4] = rabbit 1083, a listed pin number means recognized
[5] = rabbit 934, a listed pin number means recognized

Row | Sequence | pins (8-aa peptide) recognized by serum (Antibody to CS1; Antibody to CS1, rabbit 1089) | pins (8-aa peptide) recognized by serum (Antibody to CS1; Antibody to CS1, rabbit 1090) | reactivity of 8-mer peptides with antibodies from the rabbits [1] | pins (8-aa peptide) recognized by serum (Antibody to CS4; Antibody to CS4, rabbit 940) | also measured
1 | ADGSALPS (listed as Escherichia coli) [compound 20] | 20 | 20 |  |  | 
2 | ALPSAVAL (listed as Escherichia coli) [compound 24] |  | 24 | most reactive | 24 | pins (8-aa peptide) recognized by serum (Antibody to CS2; Antibody to CS2, rabbit 1077): 24
3 | ASVDPTID (listed as Escherichia coli) [compound 9] |  | 9 | most reactive |  | interaction of peptides with the antibodies raised to the consensus peptide [1]: more reliably interactive; pins (8-aa peptide) recognized by serum (Antibody to 0166 lower; [2]): 9; pins (8-aa peptide) recognized by serum (Antibody to 0166 upper; [3]): 9; pins (8-aa peptide) recognized by serum (Antibody to CS4; Antibody to CS4, rabbit 938): 9; pins (8-aa peptide) recognized by serum (Antibody to CS2; Antibody to CS2, rabbit 1076): 9; pins (8-aa peptide) recognized by serum (Antibody to CS2; Antibody to CS2, rabbit 1077): 9; pins (8-aa peptide) recognized by serum (Antibody to CS17; Antibody to CS17, rabbit 1084): 9
4 | AVALTYSP (listed as Escherichia coli) [compound 28] | 28 | 28 | most reactive |  | interaction of peptides with the antibodies raised to the consensus peptide [1]: more reliably interactive
5 | DGSALPSA (listed as Escherichia coli) [compound 21] | 21 | 21 |  |  | 
6 | DLLQADGS (listed as Escherichia coli) [compound 16] |  |  |  |  | pins (8-aa peptide) recognized by serum (Antibody to 0166 upper; [3]): 16
7 | DPTIDLLQ (listed as Escherichia coli) [compound 12] | 12 | 12 | most reactive | 12 | interaction of peptides with the antibodies raised to the consensus peptide [1]: more reliably interactive; pins (8-aa peptide) recognized by serum (Antibody to 0166 lower; [2]): 12; pins (8-aa peptide) recognized by serum (Antibody to 0166 lower; [4]): 12; pins (8-aa peptide) recognized by serum (Antibody to 0166 upper; [5]): 12; pins (8-aa peptide) recognized by serum (Antibody to 0166 upper; [3]): 12; pins (8-aa peptide) recognized by serum (Antibody to CS4; Antibody to CS4, rabbit 938): 12; pins (8-aa peptide) recognized by serum (Antibody to CS2; Antibody to CS2, rabbit 1076): 12
8 | EKNITVTA (listed as Escherichia coli) [compound 2] |  |  | most reactive | 2 | pins (8-aa peptide) recognized by serum (Antibody to 0166 lower; [4]): 2; pins (8-aa peptide) recognized by serum (Antibody to CS17; Antibody to CS17, rabbit 1080): 2
9 | GSALPSAV (listed as Escherichia coli) [compound 22] |  | 22 |  | 22 | 
10 | IDLLQADG (listed as Escherichia coli) [compound 15] |  |  |  |  | pins (8-aa peptide) recognized by serum (Antibody to 0166 upper; [3]): 15
11 | ITVTASVD (listed as Escherichia coli) [compound 5] |  |  | most reactive |  | 
12 | KNITVTAS (listed as Escherichia coli) [compound 3] | 3 |  | most reactive | 3 | pins (8-aa peptide) recognized by serum (Antibody to 0166 lower; [4]): 3; pins (8-aa peptide) recognized by serum (Antibody to CS17; Antibody to CS17, rabbit 1080): 3
13 | LLQADGSA (listed as Escherichia coli) [compound 17] |  |  |  |  | pins (8-aa peptide) recognized by serum (Antibody to 0166 upper; [3]): 17
14 | LPSAVALT (listed as Escherichia coli) [compound 25] |  |  | most reactive | 25 | 
15 | LQADGSAL (listed as Escherichia coli) [compound 18] | 18 | 18 |  |  | 
16 | NITVTASV (listed as Escherichia coli) [compound 4] | 4 | 4 | most reactive |  | pins (8-aa peptide) recognized by serum (Antibody to CS17; Antibody to CS17, rabbit 1080): 4
17 | PSAVALTY (listed as Escherichia coli) [compound 26] |  | 26 | most reactive |  | interaction of peptides with the antibodies raised to the consensus peptide [1]: more reliably interactive; pins (8-aa peptide) recognized by serum (Antibody to CS4; Antibody to CS4, rabbit 938): 26
18 | QADGSALP (listed as Escherichia coli) [compound 19] | 19 | 19 |  |  | 
19 | SALPSAVA (listed as Escherichia coli) [compound 23] |  | 23 | most reactive |  | 
20 | SAVALTYS (listed as Escherichia coli) [compound 27] |  | 27 | most reactive |  | interaction of peptides with the antibodies raised to the consensus peptide [1]: more reliably interactive
21 | SVDPTIDL (listed as Escherichia coli) [compound 10] | 10 | 10 | most reactive | 10 | interaction of peptides with the antibodies raised to the consensus peptide [1]: more reliably interactive; pins (8-aa peptide) recognized by serum (Antibody to 0166 upper; [3]): 10; pins (8-aa peptide) recognized by serum (Antibody to CS4; Antibody to CS4, rabbit 938): 10; pins (8-aa peptide) recognized by serum (Antibody to CS2; Antibody to CS2, rabbit 1076): 10; pins (8-aa peptide) recognized by serum (Antibody to CS2; Antibody to CS2, rabbit 1077): 10
22 | TASVDPTI (listed as Escherichia coli) [compound 8] |  | 8 | most reactive |  | pins (8-aa peptide) recognized by serum (Antibody to CS4; Antibody to CS4, rabbit 938): 8; pins (8-aa peptide) recognized by serum (Antibody to CS2; Antibody to CS2, rabbit 1076): 8; pins (8-aa peptide) recognized by serum (Antibody to CS2; Antibody to CS2, rabbit 1077): 8; pins (8-aa peptide) recognized by serum (Antibody to CS17; Antibody to CS17, rabbit 1084): 8
23 | TIDLLQAD (listed as Escherichia coli) [compound 14] |  |  | most reactive | 14 | pins (8-aa peptide) recognized by serum (Antibody to 0166 lower; [2]): 14; pins (8-aa peptide) recognized by serum (Antibody to 0166 upper; [5]): 14; pins (8-aa peptide) recognized by serum (Antibody to CFA/I; rabbit 1078, a listed pin number means recognized): 14; pins (8-aa peptide) recognized by serum (Antibody to CFA/I; rabbit 1079, a listed pin number means recognized): 14
24 | TVTASVDP (listed as Escherichia coli) [compound 6] |  | 6 |  |  | pins (8-aa peptide) recognized by serum (Antibody to CS17; Antibody to CS17, rabbit 1084): 6
25 | VALTYSPA (listed as Escherichia coli) [compound 29] | 29 | 29 | most reactive |  | 
26 | VEKNITVT (listed as Escherichia coli) [compound 1] |  |  |  | 1 | pins (8-aa peptide) recognized by serum (Antibody to CS17; Antibody to CS17, rabbit 1084): 1
27 | VTASVDPT (listed as Escherichia coli) [compound 7] |  | 7 |  |  | pins (8-aa peptide) recognized by serum (Antibody to CS2; Antibody to CS2, rabbit 1076): 7; pins (8-aa peptide) recognized by serum (Antibody to CS2; Antibody to CS2, rabbit 1077): 7; pins (8-aa peptide) recognized by serum (Antibody to CS17; Antibody to CS17, rabbit 1084): 7
